# Measurements taken from patent US11485987B2, “Methods for inducing bioorthogonal reactivity” (University of Delaware, priority 2015, dated 2022).
# Key:
# APEX2 (SEQ ID NO:1) = target: T1, APEX2 (SEQ ID NO:1) (Glycine max, UniProt Q43758, A134P/E112K/K14D/W41F); test: Oxidation of DHT by APEX2, UV-Vis initial rates and kinetic parameters; assay type: biochemical; conditions: for Initial rate of oxidation of DHT by APEX2 (SEQ ID NO: 1) / Initial rate of oxidation of DHT by APEX2 (SEQ ID NO: 1) + SOD: PBS, 100 μM EDTA, first 100 s; for Initial rate of oxidation of DHT by APEX2 (SEQ ID NO: 1) + SOD: SOD 1 μM
# T1 sequence (Q43758 1-250 A134P/E112K/K14D/W41F): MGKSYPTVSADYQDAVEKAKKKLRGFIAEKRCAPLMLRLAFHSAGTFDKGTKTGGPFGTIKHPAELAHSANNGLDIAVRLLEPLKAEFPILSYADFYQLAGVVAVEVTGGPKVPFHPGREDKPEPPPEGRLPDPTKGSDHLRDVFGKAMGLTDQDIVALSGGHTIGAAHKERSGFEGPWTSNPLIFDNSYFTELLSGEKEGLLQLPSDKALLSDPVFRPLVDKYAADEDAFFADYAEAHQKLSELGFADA
# Method: UV-Vis and fluorescence measurements were conducted in quartz cuvettes. All reactions were conducted in phosphate buffered saline (PBS) containing 100 μM EDTA with a pH=7.4. The PBS was prepared by adding 25 mM phosphate salts (Na2HPO4 and NaH2PO4), 100 mM NaCl, 100 μM EDTA to DI water. EDTA was added to quench free metals that can oxidize DHT. The buffer was pH adjusted to 7.4 using 1 mM HCl and 1 mM NaOH. UV experiments were stirred at 25° C. in a temperature-controlled cuvette holder of the spectrophotometer. Solutions of 15 or 16 were prepared from methanol stock solutions.
# 15 or 16 (60 μM) from methanol stock solutions was added to PBS containing 100 μM EDTA. After 10s, APEX2 (SEQ ID NO:1) (275 nM) was dosed in and oxidation was monitored at 325 nm for 15 and 285 nm for 16 at 60s intervals (FIG. 10B-C).
# 16 (15 μM) DHT from methanol stock solutions was added to PBS containing 100 μM EDTA. After 10s, APEX2 (SEQ ID NO:1) (275 nM) or HRP (15 nM) was dosed in and oxidation was monitored at 285 nm at 10s intervals (FIG. 10D)
# SOD (1 μM) was added to PBS containing 100 μM EDTA. 15 or 16 (60 μM) was added from methanol stock solutions. After 10s, APEX2 (SEQ ID NO:1) or F41A APEX2 (275 nM) was dosed in and oxidation was monitored at 325 nm for 15 and 285 nm for 16 at 60s intervals.
# The initial rate of oxidation was calculated from the first 100 seconds after APEX2 (SEQ ID NO:1) or F41A APEX2 was added ([…]). In the assays where SOD was added, SOD (1 μM) was added to PBS containing 100 μM EDTA and 15 or 16 was dosed in. 10 seconds later, APEX2 (SEQ ID NO:1) or F41A APEX2 ([…]) was added and the rate of oxidation was calculated from the first 100 seconds after APEX2 (SEQ ID NO:1) or F41A APEX2 ([…]) addition. The initial rate of oxidation was adjusted to background oxidation of DHT in PBS with 100 μM EDTA. Kinetic parameters (Table 2) were determined using GraphPad's Prism 6 software from the data presented below (Table 3-4).
# [1] = Methylene blue catalyzed photooxidation of DHTz to tetrazine
# Method: Upon addition of horseradish peroxidase (15 nM) the UV-vis spectrum was monitored every 10 seconds. With 50% conversion after 100 seconds, complete conversion of 3a to 4a is observed after 600 seconds, as evidenced by the decrease in the absorption at 292 nm and increase at 325 nm with an isosbestic point at 303 nm. Similar spectral changes are observed when 3a is electrochemically oxidized to 4a in aqueous solution, or when the oxidation of 3a to 4a is photocatalyzed by methylene blue. […] Methylene blue was considered a particularly attractive sensitizer due to its clinical relevance, low molecular weight, low toxicity, high solubility, and an absorption spectrum (λmax 665 nm) that extends to the near IR. Further, methylene blue has previously been explored for applications in photodynamic therapy based on oxidation of indole-3-acetic acid. Rose bengal (λmax 550 nm), used in a range of biomedical applications, was also identified as an excellent sensitizer. […] […] […] The mechanism of photooxidation more likely involves electron transfer and is the subject of ongoing study.
# Thus, a PBS solution of 3a was sparged with 98% nitrogen and 2% air, such that the final O2 concentration was 5 μM.
# Oxidation of 3a to 4a was monitored by recording absorbance at 325 nm every 30 seconds. Cuvettes for these experiments were washed with EDTA/PBS as described in the General Considerations (section 2.1). […]
# [2] = Fe-porphyrin catalyzed oxidation of DHTz; conditions: DHTz 35 uM in PBS pH 7.4, air
# Method: (§1) 4-Oxo-4-((6-(6-(pyridin-2-yl)-1,4-dihydro-1,2,4,5-tetrazin-3-yl)pyridin-3-yl)amino)butanoic acid (35 uM in PBS (pH 7.4), 2 mL) was placed in a 1 cm×1 cm cuvette with a strongly stirred magnetic stir bar in an atmosphere of air. A solution of Fe-TMPyP (50 uM in PBS (pH 7.4), 20 uL) was added to the cuvette. The reaction was monitored by a UV-Vis spectrometer at 280 nm and 325 nm.
# as §1, with “Fe-TPPS” for “Fe-TMPyP”
smiles,measurement,setting,value
O=C(O)CCCC(=O)Nc1ccc(C2=NNC(c3ccccn3)=NN2)nc1 [compound 15],rate of catalysis by APEX2 slower than by HRP,APEX2 (SEQ ID NO:1); APEX2 versus HRP (FIG. 10D),approximately 100 ×
same,Initial rate of oxidation of DHT by APEX2 (SEQ ID NO: 1),APEX2 (SEQ ID NO:1); DHT 5 μM,0.903 +/− 0.026 ×10^−8 M/s
same,Initial rate of oxidation of DHT by APEX2 (SEQ ID NO: 1) + SOD,APEX2 (SEQ ID NO:1); DHT 6 μM,1.104 +/− 0.028 ×10^−8 M/s
same,Initial rate of oxidation of DHT by APEX2 (SEQ ID NO: 1),APEX2 (SEQ ID NO:1); DHT 10 μM,1.286 +/− 0.141 ×10^−8 M/s
same,Initial rate of oxidation of DHT by APEX2 (SEQ ID NO: 1) + SOD,APEX2 (SEQ ID NO:1); DHT 12 μM,1.831 +/− 0.169 ×10^−8 M/s
same,Initial rate of oxidation of DHT by APEX2 (SEQ ID NO: 1),APEX2 (SEQ ID NO:1); DHT 15 μM,1.442 +/− 0.298 ×10^−8 M/s
same,Initial rate of oxidation of DHT by APEX2 (SEQ ID NO: 1) + SOD,APEX2 (SEQ ID NO:1); DHT 15 μM,1.765 +/− 0.172 ×10^−8 M/s
same,Initial rate of oxidation of DHT by APEX2 (SEQ ID NO: 1),APEX2 (SEQ ID NO:1); DHT 20 μM,1.872 +/− 0.028 ×10^−8 M/s
same,Initial rate of oxidation of DHT by APEX2 (SEQ ID NO: 1) + SOD,APEX2 (SEQ ID NO:1); DHT 20 μM,2.166 +/− 0.201 ×10^−8 M/s
same,Initial rate of oxidation of DHT by APEX2 (SEQ ID NO: 1),APEX2 (SEQ ID NO:1); DHT 25 μM,1.628 +/− 0.133 ×10^−8 M/s
same,Initial rate of oxidation of DHT by APEX2 (SEQ ID NO: 1) + SOD,APEX2 (SEQ ID NO:1); DHT 25 μM,2.937 +/− 0.487 ×10^−8 M/s
same,Initial rate of oxidation of DHT by APEX2 (SEQ ID NO: 1),APEX2 (SEQ ID NO:1); DHT 30 μM,1.878 +/− 0.055 ×10^−8 M/s
same,Initial rate of oxidation of DHT by APEX2 (SEQ ID NO: 1) + SOD,APEX2 (SEQ ID NO:1); DHT 30 μM,2.418 +/− 0.038 ×10^−8 M/s
same,Initial rate of oxidation of DHT by APEX2 (SEQ ID NO: 1),APEX2 (SEQ ID NO:1); DHT 40 μM,2.305 +/− 0.101 ×10^−8 M/s
same,Initial rate of oxidation of DHT by APEX2 (SEQ ID NO: 1) + SOD,APEX2 (SEQ ID NO:1); DHT 40 μM,3.230 +/− 0.348 ×10^−8 M/s
same,Initial rate of oxidation of DHT by APEX2 (SEQ ID NO: 1),APEX2 (SEQ ID NO:1); DHT 50 μM,2.445 +/− 0.303 ×10^−8 M/s
same,Initial rate of oxidation of DHT by APEX2 (SEQ ID NO: 1) + SOD,APEX2 (SEQ ID NO:1); DHT 50 μM,3.305 +/− 0.436 ×10^−8 M/s
same,Initial rate of oxidation of DHT by APEX2 (SEQ ID NO: 1),APEX2 (SEQ ID NO:1); DHT 60 μM,2.603 +/− 0.306 ×10^−8 M/s
same,Initial rate of oxidation of DHT by APEX2 (SEQ ID NO: 1) + SOD,APEX2 (SEQ ID NO:1); DHT 60 μM,4.169 +/− 0.242 ×10^−8 M/s
same,Initial rate of oxidation of DHT by APEX2 (SEQ ID NO: 1),APEX2 (SEQ ID NO:1); DHT 70 μM,3.197 +/− 0.025 ×10^−8 M/s
same,Initial rate of oxidation of DHT by APEX2 (SEQ ID NO: 1),APEX2 (SEQ ID NO:1); DHT 75 μM,3.460 +/− 0.492 ×10^−8 M/s
same,Initial rate of oxidation of DHT by APEX2 (SEQ ID NO: 1) + SOD,APEX2 (SEQ ID NO:1); DHT 75 μM,4.196 +/− 0.444 ×10^−8 M/s
same,Initial rate of oxidation of DHT by APEX2 (SEQ ID NO: 1),APEX2 (SEQ ID NO:1); DHT 85 μM,3.978 +/− 0.119 ×10^−8 M/s
same,Initial rate of oxidation of DHT by APEX2 (SEQ ID NO: 1) + SOD,APEX2 (SEQ ID NO:1); DHT 85 μM,4.939 +/− 0.202 ×10^−8 M/s
"O=C(O)CCC(=O)Nc1ccc(C2=NNC(c3ccccn3)=NN2)nc1 [3a, 4-oxo-4-((6-(6-(pyridin-2-yl)-1,4-dihydro-1,2,4,5-tetrazin-3-yl)pyridin-3-yl)amino)butanoic Acid]",time to quantitative conversion to tetrazine 4a,"[1]; 3a 21 μM, methylene blue 4 μM, 660 nm LED 9.1 mW/cm^2, pH 7.4 PBS",≤ 200 s
same,time to complete conversion of 3a to 4a,"[1]; hypoxia model, O2 5 μM, methylene blue 7 μM, 660 nm",≤ 30 min
same,conversion of 3a to 4a,"[1]; methylene blue 4 μM, ambient light, 2 h",47%
same,time to 50% completion of oxidation,[2]; Fe-TMPyP,≤ 1 min
same,time to 95% completion of oxidation,[2]; Fe-TMPyP,≤ 5 min
same,time to 50% completion of oxidation,[2]; Fe-TPPS,≤ 5 min
